Experimental data published in patent publication EP0375449B1, “Benzopyran-type compounds” (BEECHAM GROUP PLC, priority 1988, dated 1990).

Assays:
[1] = tested on: Spontaneously hypertensive rats; experiment: Antihypertensive activity: systolic blood pressure by tail cuff method; type: in vivo; conditions: maximum at 1-4 hours post dose
Protocol: Systolic blood pressures were recorded by a modification of the tail cuff method described by I.M. Claxton, M.G. Palfreyman, R.H. Poyser, R.L. Whiting, European Journal of Pharmacology, 37, 179 (1976). A W+W BP recorder, model 8005 was used to display pulses. Prior to all measurements rats were placed in a heated environment (33.5 ± 0.5 °C) before transfer to a restraining cage. Each determination of blood pressure was the mean of at least 5 readings. Spontaneously hypertensive rats (ages 12-18 weeks) with systolic blood pressures >180 mmHg were considered hypertensive.

trachea = experiment: Bronchodilator activity: relaxation of isolated tracheal spirals; type: tissue-based, guinea pigs; conditions: Cavia porcellus; fall in resting tension as percentage of total relaxation evoked by 10⁻³M isoprenaline; guinea pig tracheal spirals, Krebs solution 37°C; read-out: IC₅₀
Protocol: Male guinea pigs (300-600g) were stunned by a blow to the head and bled from the carotid artery. The trachea was exposed, dissected free of connective tissue, and transferred to oxygenated Krebs solution at 37 °C. Next, spirals (2 per trachea) were prepared by cutting the whole trachea spirally along its longitudinal axis and then dividing this spiral lengthwise. Each preparation was mounted, using silk thread, in a 10ml organ bath filled with krebs solution at 37 °C and bubbled with 5% CO₂ with O₂. The resting tension of the preparations was set at 2g and changes in muscle tension were monitored isometrically by means of a UFI (2oz) force and displacement transducer (Ormed Ltd) connected to a Linseis pen recorder. All preparations were allowed to equilibrate for 60 minutes. During this equilibration period the preparations were washed by upward displacement at 15 minute intervals and, if necessary, the resting tension was readjusted to 2g using a mechanical micromanipulator system.
Once a steady resting tension had been obtained, the preparations were dosed simultaneously with the test compound (10⁻⁸-2x10⁻⁵M), and finally a maximum relaxation achieved by addition of 10⁻³M isoprenaline. The fall in tension evoked by the test compound was expressed as a percentage of the total relaxation evoked in the presence of 10⁻³ isoprenaline. […]

Row | SMILES | % b.p. fall ([1]; Dose 0.3 mg/kg) | % b.p. fall ([1]; Dose 3.0 mg/kg) | further results
1 | CC(C)(C)C(=O)N[C@H]1[C@H](O)c2cc(C#N)ccc2OC1(C)C (relative stereo) [Example E21, trans-6-Cyano-2,2-dimethyl-3,4-dihydro-3-trimethylacetylamino-2H-1-benzopyran-4-ol] |  |  | % b.p. fall ([1]; Dose 1.0 mg/kg): 36%
2 | CC(C)(C)NC(=O)N[C@H]1[C@H](O)c2cc(C#N)ccc2OC1(C)C (relative stereo) [Example E5, trans-6-Cyano-2,2-dimethyl-3,4-dihydro-3-(t-butylureido)-2H-1-benzopyran-4-ol] | ≧40% |  | IC50 (trachea): 2.8 µM
3 | CC(C)NC(=O)N[C@H]1[C@H](O)c2cc(C#N)ccc2OC1(C)C (relative stereo) [Example E14, trans-6-Cyano-2,2-dimethyl-3,4-dihydro-3-(isopropylureido)-2H-1-benzopyran-4-ol] | 22% |  | 
4 | CC(C)(C)OC(=O)N[C@H]1[C@H](O)c2cc(C#N)ccc2OC1(C)C (relative stereo) [Example E1, trans-6-Cyano-2,2-dimethyl-3,4-dihydro-3-(t-butoxycarbonyl)amino-2H-1-benzopyran-4-ol] |  | 30% | 
5 | CC1(C)Oc2ccc(C#N)cc2[C@@H](O)[C@@H]1NC(=O)c1ccc(F)cc1 (relative stereo) [Example E3, trans-6-Cyano-2,2-dimethyl-3,4-dihydro-3-(4-fluorobenzoylamino)-2H-1-benzopyran-4-ol] |  | 42% | 
